Columns and labels:
MCF-7 cells = assay: Cell cycle analysis (PI, flow cytometry); assay type: cell-based, human; settings: 1 μM
Method: Figure 10 Compound (A) 22b, (B) phenstatin 19c induced apoptosis in a time-dependent manner in MCF-7 cells. Cells were treated with either vehicle control [0.1% ethanol (v/v)] or compound 22b or phenstatin 19c (1 μM) for 24, 48, and 72 h). The data shown for the control vehicle and phenstatin are as we previously reported. Cells were fixed and stained with PI, followed by analysis using flow cytometry. Cell cycle analysis was performed on histograms of gated counts per DNA area (FL2-A). The number of cells with <2 N (sub-G1), 2 N (G0G1), and 4 N (G2/M) DNA content was determined with CellQuest software, BD CellQuest Pro. Values are represented as the mean ± SEM for three separate experiments. Two-way ANOVA (Bonferroni post-test) was used to test for statistical significance (*, p < 0.05; **, p < 0.01; ***, p < 0.001).
Cells (MCF-7 and MDA-MD 231) were seeded at a density of 1 × 10^5 cells/well in 6-well plates (volume of 3 mL per well) and treated with selected compound 22b and phenstatin (19c) (1 μM), as previously reported. The time points used were 24, 48, or 72 h. Ethanol was used as the vehicle. At each time point, the media was removed and then the well was carefully rinsed with PBS and TrypLE™ Express enzyme (200 µL) was added to detach the adherent cells. The cells were collected by trypsinization and were then centrifuged at 800× g for 15 min. Cells were washed with ice-cold phosphate-buffered saline (PBS) ×2 and fixed in ice-cold 70% ethanol for 14 h at −20 °C. Fixed cells were centrifuged at 800× g for 15 min. The samples were then treated with 12.5 µL of DNase-free RNAse A (10 mg/mL) together with […] of PI (1 mg/mL) at 37 °C for 30 min, vortexed, and wrapped in tin foil. The DNA content of cells (10,000 cells/selected experimental group) was determined by flow cytometry at 488 nm with a FACSCalibur flow cytometer (BD Biosciences, San Jose, CA, USA) using the CellQuest Software (Becton-Dickinson, East Rutherford, NJ, USA). Each experiment was performed on three separate occasions.

[1] = test system: purified bovine brain tubulin; assay: Tubulin polymerization assay; assay type: biochemical; settings: after 60 min
Method: The triazole 22b was selected for evaluation in the tubulin polymerization assay. Following the protocol previously described, the polymerization of purified bovine tubulin was monitored using a tubulin polymerization assay kit, BK006, (Cytoskeleton Inc., Denver, CO, USA). The assay was carried out using the purified bovine brain tubulin. Tubulin polymerization was determined spectrophotometrically by monitoring the change in turbidity since light is scattered proportionally to the concentration of polymerized microtubules in the assay. Lyophilized tubulin [128] (Cytoskeleton, Denver, CO, USA) (>99%, 3 mg/mL) was re-suspended in ice-cold G-PEM buffer (80 mM PIPES pH 6.9, […], 1 mM EGTA, 1 mM GTP, 10.2% (v/v) glycerol) and added to wells on a half volume 96-well plate containing the designated concentration of drug (10 or 30 μM). […] Samples were mixed well and the tubulin assembly was monitored at 340 nm at 30 s intervals for 60 min at 37 °C in a Spectramax 340PC spectrophotometer (Molecular Devices, San Jose, CA, USA).
Figure 13 Inhibition of tubulin polymerization in vitro by compound 22b. […] The progress of the tubulin polymerization reaction at 37 °C was monitored at 340 nm in a Spectramax 340PC spectrophotometer at 30 s intervals for 60 min. Fold inhibition of tubulin polymerization can be calculated from the Vmax value for each reaction. […]

SMILES: COc1ccc(/C=C/C(c2cc(OC)c(OC)c(OC)c2)n2cncn2)cc1O (centres unmarked) [Compound 22b, (E)-5-(3-(1H-1,2,4-Triazol-1-yl)-3-(3,4,5-trimethoxyphenyl)prop-1-en-1-yl)-2-methoxyphenol]
- cells in G2/M phase (MCF-7 cells; 24 h): 35%
- cells in apoptosis (sub-G1) (MCF-7 cells; 24 h): 14%
- cells in G2/M phase (MCF-7 cells; 48 h): 26%
- cells in apoptosis (sub-G1) (MCF-7 cells; 48 h): 23%
- cells in G2/M phase (MCF-7 cells; 72 h): 23%
- cells in apoptosis (sub-G1) (MCF-7 cells; 72 h): 31%
- reduction in the polymer mass vs vehicle ([1]; 10 μM): 1.5 fold
- reduction in the polymer mass vs vehicle ([1]; 30 μM): 5 fold

— PMC11769294, “(E)-1-(3-(3-Hydroxy-4-Methoxyphenyl)-1-(3,4,5-Trimethoxyphenyl)allyl)-1H-1,2,4-Triazole and Related Compounds: Their Synthesis and Biological Evaluation as Novel Antimitotic Agents Targeting Breast Cancer” (Pharmaceuticals, 2025)
